{"source": "patent US12195427B2", "about": "“MASP-2 inhibitors and methods of use” (priority 2018, dated 2025)", "key": {"[1]": {"system": "Lectin Pathway", "assay": "Lectin Pathway Activation Assay in Human Serum (mannan-coated ELISA, C3c detection)", "format": "biochemical", "conditions": "1% human serum", "procedure": "Microtiter ELISA plate was coated with mannan from Saccharomyces cerevisiae (Sigma-Aldrich, M7504) for overnight at 4° C. in coating buffer [15 mM Na2CO3, 35 mM NaHCO3]."}, "[2]": {"target": "MASP-2 CCP2-SP (Homo sapiens (Human), UniProt O00187)", "sequence (O00187 445-686)": "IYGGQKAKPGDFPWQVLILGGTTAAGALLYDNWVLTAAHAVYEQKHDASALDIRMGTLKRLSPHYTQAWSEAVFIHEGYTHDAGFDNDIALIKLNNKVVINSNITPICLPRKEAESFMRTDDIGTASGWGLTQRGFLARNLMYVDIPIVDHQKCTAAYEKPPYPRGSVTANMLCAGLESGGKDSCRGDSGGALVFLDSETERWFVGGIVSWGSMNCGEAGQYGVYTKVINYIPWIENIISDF", "sequence (O00187 364-432 partner)": "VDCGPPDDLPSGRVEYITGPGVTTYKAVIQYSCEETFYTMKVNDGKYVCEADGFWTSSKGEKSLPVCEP", "assay": "MASP-2 co-crystallization, X-ray crystallography and structure analysis (H-bonds, van der Waals contacts);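 as to Ligand-pharmacophore element distance, pharmacophore element C2: distance from averaged pharmacophore element to bound ligand; missing value means element absent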;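 as to Ligand-pharmacophore element distance, pharmacophore element C3: distance from averaged pharmacophore element to bound ligand; missing value means element absent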;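 as to Ligand-pharmacophore element distance, pharmacophore element C4: distance from averaged pharmacophore element to bound ligand; missing value means element absent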;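 as to Ligand-pharmacophore element distance, pharmacophore element C5: distance from averaged pharmacophore element to bound ligand; missing value means element absent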", "design": "van der Waals contact distance, MASP-2 HIS 483 atom CD2 / van der Waals contact distance, MASP-2 HIS 483 atom NE2 / van der Waals contact distance, SER 654 C to compound atom / van der Waals contact distance, SER 654 O to compound atom / van der Waals contact distance, TRP 655 C to compound atom / van der Waals contact distance, MASP-2 GLY 528 atom CA / van der Waals contact distance TRP 655 atom CZ3 / van der Waals contact distance TRP 655 atom N / van der Waals contact distance TRP 655 atom CE3 / van der Waals contact distance GLY 656 atom C / van der Waals contact distance GLY 656 atom CA / van der Waals contact distance GLY 656 atom O / van der Waals contact distance, MASP-2 TYR 607 atom CD1 / van der Waals contact distance, MASP-2 PRO 606 atom O / d(C3,CA1) / d(CA1,N1)2 / d(H4,O1) / d(H4,O2) / d(O1,O2) / d(CA1,O2) / d(CA6,O1) / d(CA6,O2) / d(CA1,C5) / d(O2,H3) / d(N2,C2) / d(CA5,N2) / d(N2,C4) / d(N2,C6) / d(N2,CA3) / d(N2,O3) / d(O4,H2): unit not given beside the values", "conditions": "for H-bond distance to MASP-2 ASP 627 atom OD2: ASP 627 OD2; for H-bond distance to MASP-2 GLY 656 atom N: GLY 656 N; for H-bond distance to MASP-2 GLY 656 atom O: GLY 656 O; for H-bond distance to MASP-2 SER 654 atom O: SER 654 O; for H-bond distance to MASP-2 SER 657 atom O: SER 657 O; for van der Waals contact distance, MASP-2 HIS 483 atom CD2 / van der Waals contact distance, MASP-2 HIS 483 atom NE2: Table A2-1; for van der Waals contact distance TRP 655 atom CE3: MASP-2 TRP 655 CE3, compound atom in line below", "procedure,_shortened": "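Human MASP-2 CCP2-SP, untagged or 6His-tagged, was expressed in E. coli and crystallized. Crystals were soaked with inhibitor in crystallization solution, flash-cooled in liquid nitrogen, and diffracted with synchrotron X-rays (wavelength 1.0). Structures were solved by molecular replacement from 1Q3X and partially refined.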"}, "[3]": {"target": "MASP-2 (CCP1-CCP2-SP) (Homo sapiens (Human), UniProt O00187)", "sequence (O00187 445-686)": "as the sequence (O00187 445-686) above", "assay": "Enzymatic Assay for MASP-2 (fluorogenic substrate)", "format": "biochemical"}, "[4]": {"conditions": "Table A5-1 pharmacophore: distance between elements, S2/S1 region"}, "[5]": {"conditions": "Table A5-2 pharmacophore distance, S3/S4 region"}, "[6]": {"conditions": "Table A7-1, between pharmacophore elements of the bound compound"}}, "note": "Counter-ions that a name gives are not always drawn.", "data": [{"compound": "Cc1nc(N)ccc1CNC(=O)[C@H](C)NC(=O)[C@H]1C[C@H](Cc2ccccc2)CN1", "note": "[compound 1304, (2R,4S)—N—((S)-1-(((6-Amino-2-methylpyridin-3-yl)methyl)amino)-1-oxopropan-2-yl)-4-benzylpyrrolidine-2-carboxamide]", "values": [{"measurement": "IC50", "setting": "[1]", "value": "50 to 500", "unit": "nM"}, {"measurement": "H-bond distance to MASP-2 ASP 627 atom OD2", "setting": "[2]; Table A1 (H-Bonds)", "value": 3.17}, {"measurement": "H-bond distance to MASP-2 GLY 656 atom N", "setting": "[2]; Table A1 (H-Bonds)", "value": 3.2}, {"measurement": "H-bond distance to MASP-2 GLY 656 atom O", "setting": "[2]; Table A1 (H-Bonds)", "value": 2.81}, {"measurement": "H-bond distance to MASP-2 SER 628 atom O", "setting": "[2]; Table A1 (H-Bonds), SER 628 O", "value": 3.18}, {"measurement": "H-bond distance to MASP-2 SER 654 atom O", "setting": "[2]; Table A1 (H-Bonds)", "value": 2.97}, {"measurement": "H-bond distance to MASP-2 SER 657 atom O", "setting": "[2]; Table A1 (H-Bonds)", "value": 2.96}, {"measurement": "van der Waals contact distance, MASP-2 HIS 483 atom CD2", "setting": "[2]", "value": 3.71}, {"measurement": "van der Waals contact distance, MASP-2 HIS 483 atom NE2", "setting": "[2]", "value": 3.65}, {"measurement": "van der Waals contact distance, MASP-2 GLY 528 atom CA", "setting": "[2]; Table A2-2", "value": 3.79}, {"measurement": "van der Waals contact distance, MASP-2 PHE 529 atom CD2", "setting": "[2]; Table A2-3", "value": 3.79}, {"measurement": "van der Waals contact distance, MASP-2 PHE 529 atom CE2", "setting": "[2]; Table A2-3", "value": 3.84}, {"measurement": "van der Waals contact distance, MASP-2 TYR 607 atom CD1", "setting": "[2]; Table A2-4", "value": 3.78}, {"measurement": "van der Waals contact distance, MASP-2 amino acid atom to compound atom", "setting": "[2]; Table A2-7: SER 628 (CB, O, OG)", "value": 3.65}, {"measurement": "van der Waals contact distance, VAL 653 CG1 to compound atom", "setting": "[2]; Table A2-11", "value": 3.27}, {"measurement": "van der Waals contact distance, TRP 655 CA to compound atom", "setting": "[2]; Table A2-12", "value": 3.42}, {"measurement": "van der Waals contact distance TRP 655 atom CE3", "setting": "[2]; Table A2-13", "value": 3.78}, {"measurement": "van der Waals contact distance TRP 655 atom CZ3", "setting": "[2]; Table A2-13, MASP-2 TRP 655 CZ3", "value": 3.68}, {"measurement": "van der Waals contact distance, MASP-2 amino acid atom to compound atom", "setting": "[2]; Table A2 section before Table A2-8", "value": 3.81}, {"measurement": "Ligand-pharmacophore element distance, pharmacophore element C2", "setting": "[2]; Table A4-1, element C2", "value": 0}, {"measurement": "Ligand-pharmacophore element distance, pharmacophore element C3", "setting": "[2]; Table A4-1, element C3", "value": 0.09}, {"measurement": "Ligand-pharmacophore element distance, pharmacophore element C4", "setting": "[2]; Table A4-1, element C4", "value": 0}, {"measurement": "Ligand-pharmacophore element distance, pharmacophore element C5", "setting": "[2]; Table A4-1, element C5", "value": 0}, {"measurement": "Ligand-pharmacophore element distance, pharmacophore element C6", "setting": "[2]; Table A4-1, element C6", "value": 0}, {"measurement": "Ligand-pharmacophore element distance, pharmacophore element C7", "setting": "[2]; Table A4-1, element C7", "value": 0}, {"measurement": "Ligand-pharmacophore element distance, pharmacophore element CA1", "setting": "[2]; Table A4-1, element CA1", "value": 0.56}, {"measurement": "Ligand-pharmacophore element distance, pharmacophore element CA2", "setting": "[2]; Table A4-1, element CA2", "value": 0.23}, {"measurement": "Ligand-pharmacophore element distance, pharmacophore element CA3", "setting": "[2]; Table A4-1, element CA3", "value": 0}, {"measurement": "Ligand-pharmacophore element distance, pharmacophore element CA4", "setting": "[2]; Table A4-1, element CA4", "value": 0}, {"measurement": "Ligand-pharmacophore element distance, pharmacophore element CA5", "setting": "[2]; Table A4-1, element CA5", "value": 0}, {"measurement": "Ligand-pharmacophore element distance, pharmacophore element CA6", "setting": "[2]; Table A4-1, element CA6", "value": 0}, {"measurement": "d(C3,CA1)", "setting": "[2]; [4]", "value": 2.84}, {"measurement": "d(CA1,N1)2", "setting": "[2]; [4]", "value": 1.38}, {"measurement": "d(CA1,O1)", "setting": "[2]; [4]", "value": 4.39}, {"measurement": "d(CA1,O2)", "setting": "[2]; [4]", "value": 3.89}, {"measurement": "d(H4,O1)", "setting": "[2]; [4]", "value": 4.40}, {"measurement": "d(H4,O2)", "setting": "[2]; [4]", "value": 3.85}, {"measurement": "d(O1,O2)", "setting": "[2]; [4]", "value": 3.37}, {"measurement": "d(N2,CA2)", "setting": "[2]; [5]", "value": 5.96}, {"measurement": "d(O2,H3)", "setting": "[2]; [5]", "value": 4.37}, {"measurement": "d(O2,N2)", "setting": "[2]; [5]", "value": 2.62}, {"measurement": "a(C3, CA1, O1)", "setting": "[2]; Table A6-1 pharmacophore angle", "value": 149.82}, {"measurement": "a(CA1, O1, O2)", "setting": "[2]; Table A6-1 pharmacophore angle", "value": 105.87}, {"measurement": "a(O1, O2, H4)", "setting": "[2]; Table A6-1 pharmacophore angle", "value": 132.43}, {"measurement": "a(N1, CA1, O1) b)", "setting": "[2]; Table A6-1 pharmacophore angle, Methyl-amino-pyridine compounds", "value": 173.92}, {"measurement": "a(O1, O2, H3)", "setting": "[2]; Table A6-2 pharmacophore angle", "value": 147.16}, {"measurement": "a(O1, O2, N2)", "setting": "[2]; Table A6-2 pharmacophore angle", "value": 139.74}, {"measurement": "a(O2, N2, CA2)", "setting": "[2]; Table A6-2 pharmacophore angle", "value": 156.83}, {"measurement": "Pharmacophore torsion angle a(C3, CA1, O1, H4)", "setting": "[2]; [6]", "value": 24.93}, {"measurement": "Pharmacophore torsion angle a(H4, O1, O2, H3)", "setting": "[2]; [6]", "value": 49.79}, {"measurement": "Pharmacophore torsion angle a(H4, O1, O2, N2)", "setting": "[2]; [6]", "value": 138.09}, {"measurement": "Pharmacophore torsion angle a(N1, CA1, O1, H4)", "setting": "[2]; [6]", "value": 5.90}, {"measurement": "Pharmacophore torsion angle a(O1, H4, O2, CA1)", "setting": "[2]; [6]", "value": "−84.58"}, {"measurement": "Pharmacophore torsion angle a(O1, O2, N2, CA2)", "setting": "[2]; Table A7-2, between pharmacophore elements of the bound compound", "value": 125.90}]}, {"compound": "C[C@H](NC(=O)[C@H]1C[C@@H](c2ccccc2)CCN1)C(=O)NCc1ccc(C(=N)N)cc1", "note": "[compound 1230, (2R,4S)—N—((S)-1-((4-Carbamimidoylbenzyl)amino)-1-oxopropan-2-yl)-4-phenylpiperidine-2-carboxamide Dihydrochloride]", "values": [{"measurement": "IC50", "setting": "[1]", "value": "< 50", "unit": "nM"}]}, {"compound": "C[C@H](NC(=O)[C@H]1C[C@@H](c2ccccc2)CN1)C(=O)NCc1ccc2c(N)nccc2c1", "note": "[compound 1089]", "values": [{"measurement": "Ki", "setting": "[3]", "value": "< 500", "unit": "nM"}, {"measurement": "H-bond distance to MASP-2 ASP 627 atom OD2", "setting": "[2]; Table A1 (H-Bonds)", "value": 2.8}, {"measurement": "H-bond distance to MASP-2 GLY 656 atom N", "setting": "[2]; Table A1 (H-Bonds)", "value": 3.3}, {"measurement": "H-bond distance to MASP-2 GLY 656 atom O", "setting": "[2]; Table A1 (H-Bonds)", "value": 2.82}, {"measurement": "H-bond distance to MASP-2 SER 654 atom O", "setting": "[2]; Table A1 (H-Bonds)", "value": 2.93}, {"measurement": "H-bond distance to MASP-2 SER 657 atom O", "setting": "[2]; Table A1 (H-Bonds)", "value": 2.93}, {"measurement": "van der Waals contact distance, MASP-2 HIS 483 atom CD2", "setting": "[2]", "value": 3.71}, {"measurement": "van der Waals contact distance, MASP-2 HIS 483 atom NE2", "setting": "[2]", "value": 3.83}, {"measurement": "van der Waals contact distance, MASP-2 PRO 606 atom O", "setting": "[2]; Table A2-4", "value": 3.4}, {"measurement": "van der Waals contact distance, SER 654 O to compound atom", "setting": "[2]; Table A2-12", "value": 3.57}, {"measurement": "van der Waals contact distance TRP 655 atom CE3", "setting": "[2]; Table A2-13", "value": 3.59}, {"measurement": "van der Waals contact distance GLY 656 atom O", "setting": "[2]; Table A2-14, MASP-2 GLY 656 O", "value": 2.95}, {"measurement": "van der Waals contact distance SER 657 atom C", "setting": "[2]; Table A2-14, MASP-2 SER 657 C, columns c12-c13 (inferred)", "value": 3.86}]}, {"compound": "Cc1cccc(CNC(=O)[C@H](C)NC(=O)[C@H]2C[C@H](Cc3ccccc3)CN2)c1-n1ncnn1", "note": "[compound 1437, (2R,4S)-4-Benzyl-N—((S)-1-((3-methyl-2-(2H-tetrazol-2-yl)benzyl)amino)-1-oxopropan-2-yl)pyrrolidine-2-carboxamide]", "values": [{"measurement": "Ki", "setting": "[3]", "value": "500 to 2500", "unit": "nM"}]}]}
